{
  "source": "PubChem BioAssay AID1259409",
  "about": "(Chemical Carcinogenesis Research Information System (CCRIS), 2018)",
  "origin": "cited, not measured here",
  "test_system": "rodent chemically induced tumor inhibition, incidence and multiplicity",
  "assay": "CCRIS tumor inhibitor studies",
  "details": "for outcome: Carcinogen: SUBCUTANEOUS, Dose [Inhibitor]: 1,2-DIMETHYLHYDRAZINE, 540-73-8, Route [Inhibitor]: 0, 20 UG/ML IN DRINKING WATER 14 HR/D AT NIGHT TIME FOR 6 MO (STUDY DURATION: 6 MO), Dose [Carcinogen]: NONE",
  "data": [
    {"smiles": "COc1ccc2[nH]cc(CCNC(C)=O)c2c1", "values": [
      {"measurement": "tumour outcome (control, treated, inhibition, significance)", "setting": "Carcinogen: N,N-DIETHYLNITROSAMINE [55-18-5], Dose [Inhibitor]: 400 PPM IN DIET, BEGINNING 1 WK AFTER FINAL CARCINOGEN DOSE, FOR STUDY DURATION (STUDY DURATION: 24 WK), Route [Inhibitor]: ORAL, Species: RAT, Strain/Sex: F344/MALE, Target Tissue: Type of Lesion: LIVER: HEPATOCELLULAR ADENOMA AND CARCINOMA, Dose [Carcinogen]: 100 MG/KG BW, 1/WK FOR 3 WK, Promoter: PHENOBARBITAL [50-06-6]", "result": "24/24 (100%), 15/23 (65%), 35%, p<0.002"},
      {"measurement": "tumour outcome (control, treated, inhibition, significance)", "setting": "Carcinogen: N,N-DIETHYLNITROSAMINE [55-18-5], Dose [Inhibitor]: 400 PPM IN DIET, BEGINNING 1 WK AFTER FINAL CARCINOGEN DOSE, FOR STUDY DURATION (STUDY DURATION: 24 WK), Route [Inhibitor]: ORAL, Species: RAT, Strain/Sex: F344/MALE, Target Tissue: Type of Lesion: LIVER: HEPATOCELLULAR ADENOMA, Dose [Carcinogen]: 100 MG/KG BW, 1/WK FOR 3 WK, Promoter: PHENOBARBITAL [50-06-6]", "result": "24/24 (100%), 9/23 (39%), 61%, p<0.001"},
      {"measurement": "tumour outcome (control, treated, inhibition, significance)", "setting": "Carcinogen: N-METHYL-N-NITROSOUREA [684-93-5], Dose [Inhibitor]: 0, 20 MG/L IN DRINKING WATER 15 HR/D FOR 3 D BEGINNING 2 D PRIOR TO CARCINOGEN DOSE (STUDY DURATION: LIFETIME), Route [Inhibitor]: ORAL, Species: RAT, Strain/Sex: LIO/FEMALE, Target Tissue: Type of Lesion: TUMORS, Dose [Carcinogen]: 50 MG/KG BW ONCE (STUDY DURATION: LIFETIME), Promoter: NONE", "result": "12/24 (50%), 8/23 (34.8%), 30.4%, not significant"},
      {"measurement": "tumour outcome (control, treated, inhibition, significance)", "setting": "Carcinogen: N-METHYL-N-NITROSOUREA [684-93-5], Dose [Inhibitor]: 8.2 MG IN 20 µL OIL CONCENTRATE BY PIPET AT THE BASE OF THE TONGUE 1X/D FOR 20 WK BEGINNING 11 D POST FIRST CARCINOGEN D, Route [Inhibitor]: ORAL, Species: RAT, Strain/Sex: SPRAGUE-DAWLEY/FEMALE, Target Tissue: Type of Lesion: MAMMARY GLAND: TUMOR, Dose [Carcinogen]: 50 MG/KG BW 1X/WK FOR 2 WK (STUDY DURATION: 22 WK), Promoter: NONE", "result": "88%, 80%, 9%, not significant"},
      {"measurement": "tumour outcome (control, treated, inhibition, significance)", "setting": "Carcinogen: N-METHYL-N-NITROSOUREA [684-93-5], Dose [Inhibitor]: 20 UG/ML IN DRINKING WATER 17 HR/D FOR 20 WK BEGINNING 12 D POST FIRST CARCINOGEN DOSE (STUDY DURATION: 22 WK), Route [Inhibitor]: ORAL, Species: RAT, Strain/Sex: SPRAGUE-DAWLEY/FEMALE, Target Tissue: Type of Lesion: MAMMARY GLAND: TUMOR, Dose [Carcinogen]: 50 MG/KG BW 1X/WK FOR 2 WK (STUDY DURATION: 22 WK), Promoter: NONE", "result": "88%, 61%, 31%, not significant"},
      {"measurement": "tumour outcome (control, treated, inhibition, significance)", "setting": "Carcinogen: N-METHYL-N-NITROSOUREA [684-93-5], Dose [Inhibitor]: 20 UG/ML IN DRINKING WATER, 17 HR/D BEGINNING 5 D BEFORE FIRST CARCINOGEN DOSE FOR 27 WK (STUDY DURATION: 27 WK), Route [Inhibitor]: ORAL, Species: RAT, Strain/Sex: SPRAGUE-DAWLEY/FEMALE, Target Tissue: Type of Lesion: MAMMARY GLAND: TUMOR, Dose [Carcinogen]: 50 MG/KG BW TWICE ON POSTNATAL DAYS 51 AND 58", "result": "17/18 (94%), 14/19 (73.7%), 22%, not significant"},
      {"measurement": "tumour outcome (control, treated, inhibition, significance)", "setting": "Carcinogen: N-METHYL-N-NITROSOUREA, 684-93-5, Dose [Inhibitor]: 0, 4 UG/ML IN DRINKING WATER 17 HR/D STARTING BEFORE CARCINOGEN TREATMENT FOR THE DURATION OF THE STUDY (STUDY DURATION:, Route [Inhibitor]: SUBCUTANEOUSLY, Species: RAT, Strain/Sex: SPRAGUE-DAWLEY/FEMALE, Target Tissue: Type of Lesion: MAMMARY GLAND: TUMOR, Dose [Carcinogen]: 50 MG/KG BW 2/WK FOR 1 WK BW 43-54 POSTNATAL DAYS", "result": "80%, 65%, 19%, not significant"},
      {"measurement": "tumour outcome (control, treated, inhibition, significance)", "setting": "Carcinogen: N-METHYL-N-NITROSOUREA, 684-93-5, Dose [Inhibitor]: 0, 20 UG/ML IN DRINKING WATER FOR 17 HR/D FOR THE DURATION OF STUDY (STUDY DURATION: 180 D), Route [Inhibitor]: ORAL, Species: RAT, Strain/Sex: SPRAGUE-DAWLEY/FEMALE, Target Tissue: Type of Lesion: MAMMARY GLAND: TUMOR, Dose [Carcinogen]: 50 MG/G BW ONCE/WK FOR 2 WK BEGINNING 12 D POST INHIBITOR TREATMENT, Promoter: NONE", "result": "16/20 (80%), 9/16 (56.3%), 30%, not significant"},
      {"measurement": "tumour outcome (control, treated, inhibition, significance)", "setting": "Carcinogen: NONE USED, Dose [Inhibitor]: 0, 25 UG/MOUSE/D IN DRINKING WATER FROM DAYS 21-45 OF AGE THEN 50 UG/D FOR DURATION OF STUDY (STUDY DURATION: 12 MO), Route [Inhibitor]: ORAL, Species: MOUSE, Strain/Sex: C3H/JAX/FEMALE, Target Tissue: Type of Lesion: MAMMARY GLAND: ADENOCARCINOMA", "result": "10/16 (63%), 9/39 (23%), 63%, p<0.02"},
      {"measurement": "outcome", "setting": "Species: RAT, Strain/Sex: LIO/FEMALE, Target Tissue: Type of Lesion: 7/21 (33%), 4/21 (19%), 42%, NOT SIGNIFICANT", "result": "0.4, 0.2, 50%, not significant"},
      {"measurement": "outcome", "setting": "Species: RAT, Strain/Sex: LIO/FEMALE, Target Tissue: Type of Lesion: 12/21 (57%), 3/21 (4%), 93%, P<0.01", "result": "0.8, 0.1, 88%, p<0.01"},
      {"measurement": "outcome", "setting": "Species: RAT, Strain/Sex: LIO/FEMALE, Target Tissue: Type of Lesion: 20/21 (95%), 12/21 (57%), 40%, P<0.01", "result": "2.8, 1.2, 57%, p<0.01"}
    ]}
  ]
}
